According to US4156724A, “N-acylamino-alpha-arylacetamido cephalosporins and antibacterial compositions and methods containing them” (Sumitomo Chemical Company, Limited, priority 1974, dated 1979):
In brackets after ≈: the same amount, converted by molar mass. Read-outs that look alike come from different tables or passages of the source.

Columns and labels:
Assay type in all cases: cell-based
Escherichia coli NIHJ = test: Minimum Inhibitory Concentration, Escherichia coli NIHJ; conditions: for MIC: read-out: Minimum Inhibitory Concentration
Protocol: (§1) anti-microbial activity tests were carried out on the compounds obtained in the Examples.

[1] = test system: Enterobacter aerogeneus No. 75; test: Minimum Inhibitory Concentration, Enterobacter aerogeneus No. 75; conditions: Enterobacter aerogeneus No. 75; for MIC: read-out: Minimum Inhibitory Concentration
Protocol: as §1

[2] = test system: Klebsiella pneumoniae 602; test: Minimum Inhibitory Concentration, Klebsiella pneumoniae 602
Protocol: as §1

[3] = test system: Staphylococcus aureus 209 P; test: Minimum Inhibitory Concentration, Staphylococcus aureus 209 P; conditions: Staphylococcus aureus 209 P; for MIC: read-out: Minimum Inhibitory Concentration
Protocol: as §1

[4] = test system: Staphylococcus aureus FS 289; test: Minimum Inhibitory Concentration, Staphylococcus aureus FS 289
Protocol: as §1
*Staphylococcus aureus FS 289: strain resistant to penicillin

Proteus vulgaris HX 19 = test: Minimum Inhibitory Concentration, Proteus vulgaris HX 19; conditions: Proteus vulgaris HX 19; for MIC: HX19, read-out: Minimum Inhibitory Concentration
Protocol: as §1

Serratia No. 72 = test: Minimum Inhibitory Concentration, Serratia No. 72
Protocol: as §1

[5] = test system: Pseudomonas aeruginosa 104; test: Minimum Inhibitory Concentration, Pseudomonas aeruginosa 104; conditions: Pseudomonas aeruginosa 104; for MIC: read-out: Minimum Inhibitory Concentration
Protocol: as §1

[6] = Klebsiella pneumoniae, 602, Klebsiella pneumoniae 602, read-out: Minimum Inhibitory Concentration
[7] = FS289, Staphylococcus aureus FS 289, strain resistant to penicillin, read-out: Minimum Inhibitory Concentration

Question: For `Cc1cc(C(NC(=O)c2cnc3cccnc3c2O)C(=O)NC2C(=O)N3C(C(=O)O)=C(CSc4ccc(O)nn4)CSC23)ccc1O` (stereo not drawn) [Example 161], which MIC (Escherichia coli NIHJ; Escherichia coli NIHJ) is on record?
Answer: 6.25 µg/mL (≈ 9.25 µM)

Question: What about the MIC [1] of the same molecule?
Answer: 12.5 µg/mL (≈ 18.5 µM)

Question: What about the MIC [2, 6] of the same molecule?
Answer: 3.13 µg/mL (≈ 4.63 µM)

Question: And the MIC [3]?
Answer: 0.78 µg/mL (≈ 1.15 µM)

Question: And the MIC [4, 7]?
Answer: 12.5 µg/mL (≈ 18.5 µM)

Question: What about the MIC (Proteus vulgaris HX 19) of the same molecule?
Answer: 0.39 µg/mL (≈ 0.577 µM)

Question: And the MIC (Serratia No. 72)?
Answer: 50 µg/mL (≈ 74 µM)

Question: What about the MIC [5] of the same molecule?
Answer: 6.25 µg/mL (≈ 9.25 µM)

Question: How did the MIC (Escherichia coli NIHJ; Escherichia coli) turn out when `Cc1nnc(SCC2=C(C(=O)O)N3C(=O)[C@@H](NC(=O)Cn4cnnn4)[C@H]3SC2)s1` [CEZ, reference compound] was run?
Answer: 1.56 µg/mL (≈ 3.43 µM)

Question: What about the MIC [1] of the same molecule?
Answer: 100 µg/mL (≈ 220 µM)

Question: And the MIC [2, 6]?
Answer: 0.78 µg/mL (≈ 1.72 µM)

Question: What about the MIC [3] of the same molecule?
Answer: 0.2 µg/mL (≈ 0.44 µM)

Question: What about the MIC ([4]; Staphylococcus aureus, FS289, read-out: Minimum Inhibitory Concentration) of the same molecule?
Answer: 1.56 µg/mL (≈ 3.43 µM)

Question: And the MIC (Proteus vulgaris HX 19)?
Answer: 6.25 µg/mL (≈ 13.8 µM)

Question: And the MIC (Serratia No. 72)?
Answer: > 200 µg/mL

Question: What about the MIC [5] of the same molecule?
Answer: > 200 µg/mL

Question: For `Cn1nnnc1SCC1=C(C(=O)O)N2C(=O)C(NC(=O)C(NC(=O)c3cnc4cccnc4c3O)c3ccc(O)c(O)c3)C2SC1` (stereo not drawn) [Example 167], which MIC (Escherichia coli NIHJ; Escherichia coli NIHJ) is on record?
Answer: 1.56 µg/mL (≈ 2.34 µM)

Question: And the MIC [1]?
Answer: 3.13 µg/mL (≈ 4.7 µM)

Question: What about the MIC [2, 6] of the same molecule?
Answer: 1.56 µg/mL (≈ 2.34 µM)

Question: What about the MIC [3] of the same molecule?
Answer: 1.56 µg/mL (≈ 2.34 µM)

Question: What about the MIC [4, 7] of the same molecule?
Answer: 6.25 µg/mL (≈ 9.39 µM)

Question: What about the MIC (Proteus vulgaris HX 19) of the same molecule?
Answer: 0.2 µg/mL (≈ 0.3 µM)

Question: What about the MIC (Serratia No. 72) of the same molecule?
Answer: 12.5 µg/mL (≈ 18.8 µM)

Question: What about the MIC [5] of the same molecule?
Answer: 3.13 µg/mL (≈ 4.7 µM)

Question: Which results are given for `CC(=O)OCC1=C(C(=O)O)N2C(=O)C(NC(=O)C(NC(=O)c3ccnnc3O)c3ccc(N)cc3)C2SC1` (stereo not drawn) [Example 58]?
Answer: MIC (Escherichia coli NIHJ; Escherichia coli NIHJ): 12.5 µg/mL (≈ 23 µM); MIC [1]: 25 µg/mL (≈ 46.1 µM); MIC [2, 6]: 12.5 µg/mL (≈ 23 µM); MIC [3]: 0.39 µg/mL (≈ 0.719 µM); MIC [4, 7]: 3.13 µg/mL (≈ 5.77 µM); MIC (Proteus vulgaris HX 19): 0.2 µg/mL (≈ 0.369 µM); MIC (Serratia No. 72): > 200 µg/mL; MIC [5]: 6.25 µg/mL (≈ 11.5 µM)

Question: `Cn1nnnc1SCC1=C(C(=O)O)N2C(=O)C(NC(=O)C(NC(=O)c3cnc4scnc4c3O)c3ccc(O)cc3)C2SC1` (stereo not drawn) [Example 158] was tested. Which MIC (Escherichia coli NIHJ; Escherichia coli NIHJ) did it give?
Answer: 6.25 µg/mL (≈ 9.53 µM)

Question: And the MIC [1]?
Answer: 12.5 µg/mL (≈ 19.1 µM)

Question: And the MIC [2, 6]?
Answer: 1.56 µg/mL (≈ 2.38 µM)

Question: What about the MIC [3] of the same molecule?
Answer: 0.39 µg/mL (≈ 0.595 µM)

Question: And the MIC [4, 7]?
Answer: 12.5 µg/mL (≈ 19.1 µM)

Question: And the MIC (Proteus vulgaris HX 19)?
Answer: 0.39 µg/mL (≈ 0.595 µM)

Question: What about the MIC (Serratia No. 72) of the same molecule?
Answer: 25 µg/mL (≈ 38.1 µM)

Question: What about the MIC [5] of the same molecule?
Answer: 6.25 µg/mL (≈ 9.53 µM)

Question: Which results are given for `CC(=O)OCC1=C(C(=O)O)N2C(=O)C(NC(=O)C(NC(=O)c3cnc4cccnc4c3O)c3ccc(CO)cc3)C2SC1` (racemic) [Example 89, 7-[DL-α-(4-Hydroxy-1,5-naphthyridine-3-carbonamido)-α-p-hydroxymethylphenylacetamido]cephalosporanic Acid]?
Answer: MIC (Escherichia coli NIHJ; Escherichia coli NIHJ): 3.13 µg/mL (≈ 5.15 µM); MIC [1]: 6.25 µg/mL (≈ 10.3 µM); MIC [2, 6]: 1.56 µg/mL (≈ 2.57 µM); MIC [3]: 1.56 µg/mL (≈ 2.57 µM); MIC [4, 7]: 6.25 µg/mL (≈ 10.3 µM); MIC (Proteus vulgaris HX 19): 0.78 µg/mL (≈ 1.28 µM); MIC (Serratia No. 72): 50 µg/mL (≈ 82.3 µM); MIC [5]: 6.25 µg/mL (≈ 10.3 µM)

Question: `CC(=O)OCC1=C(C(=O)O)N2C(=O)C(NC(=O)[C@H](NC(=O)c3cnc4cccnc4c3O)c3ccc(O)cc3)C2SC1` (stereo partly drawn) [Example 120, 7-[D-α-(4-Hydroxy-1,5-naphthyridine-3-carbonamido)-α-hydroxyphenylacetamido]cephalosporanic Acid] was tested. Which MIC (Escherichia coli NIHJ; Escherichia coli) did it give?
Answer: 3.13 µg/mL (≈ 5.27 µM)

Question: What about the MIC [1] of the same molecule?
Answer: 6.25 µg/mL (≈ 10.5 µM)

Question: What about the MIC ([2]; Klebsiella pneumoniae, 602, read-out: Minimum Inhibitory Concentration) of the same molecule?
Answer: 1.56 µg/mL (≈ 2.63 µM)

Question: What about the MIC [3] of the same molecule?
Answer: 0.78 µg/mL (≈ 1.31 µM)

Question: What about the MIC [4, 7] of the same molecule?
Answer: 6.25 µg/mL (≈ 10.5 µM)

Question: And the MIC (Proteus vulgaris HX 19)?
Answer: 0.39 µg/mL (≈ 0.657 µM)

Question: What about the MIC (Serratia No. 72) of the same molecule?
Answer: 50 µg/mL (≈ 84.2 µM)

Question: And the MIC [5]?
Answer: 6.25 µg/mL (≈ 10.5 µM)

Question: With `Cn1nnnc1SCC1=C(C(=O)O)N2C(=O)[C@@H](NC(=O)[C@H](NC(=O)c3cnc4cccnc4c3O)c3cccc(NC(N)=O)c3)[C@H]2SC1` [Example 38] as the molecule, how does the MIC (Escherichia coli NIHJ; Escherichia coli NIHJ) read?
Answer: 1.56 µg/mL (≈ 2.26 µM)

Question: What about the MIC [1] of the same molecule?
Answer: 3.13 µg/mL (≈ 4.53 µM)

Question: And the MIC [2, 6]?
Answer: 1.56 µg/mL (≈ 2.26 µM)

Question: What about the MIC [3] of the same molecule?
Answer: 0.78 µg/mL (≈ 1.13 µM)

Question: What about the MIC [4, 7] of the same molecule?
Answer: 6.25 µg/mL (≈ 9.04 µM)

Question: And the MIC (Proteus vulgaris HX 19)?
Answer: 0.1 µg/mL (≈ 0.145 µM)

Question: And the MIC (Serratia No. 72)?
Answer: 12.5 µg/mL (≈ 18.1 µM)

Question: What about the MIC [5] of the same molecule?
Answer: 3.13 µg/mL (≈ 4.53 µM)

Question: Which results are given for `Nc1cccc(C(NC(=O)c2cnccc2O)C(=O)NC2C(=O)N3C(C(=O)O)=C(CSc4ccc(O)nn4)CSC23)c1` (stereo not drawn) [Example 85]?
Answer: MIC (Escherichia coli NIHJ; Escherichia coli NIHJ): 6.25 µg/mL (≈ 10.3 µM); MIC [1]: 25 µg/mL (≈ 41 µM); MIC [2, 6]: 3.13 µg/mL (≈ 5.13 µM); MIC [3]: 0.39 µg/mL (≈ 0.64 µM); MIC [4, 7]: 6.25 µg/mL (≈ 10.3 µM); MIC (Proteus vulgaris HX 19): 0.2 µg/mL (≈ 0.328 µM); MIC (Serratia No. 72): 100 µg/mL (≈ 164 µM); MIC [5]: 6.25 µg/mL (≈ 10.3 µM)

Question: With `CSc1ncc2c(O)c(C(=O)NC(C(=O)NC3C(=O)N4C(C(=O)[O-])=C(COC(C)=O)CSC34)c3ccc(O)cc3)cnc2n1.[Na+]` (stereo not drawn) [Example 137] as the molecule, how does the “Minimum Inhibitory Concentration” value (Escherichia coli NIHJ; Escherichia coli NIHJ) read?
Answer: 12.5 µg/mL

Question: And the “Minimum Inhibitory Concentration” value [1]?
Answer: 50 µg/mL

Question: What about the “Minimum Inhibitory Concentration” value ([2]; Klebsiella pneumoniae 602) of the same molecule?
Answer: 12.5 µg/mL

Question: What about the “Minimum Inhibitory Concentration” value [3] of the same molecule?
Answer: 1.56 µg/mL

Question: What about the “Minimum Inhibitory Concentration” value ([4]; Staphylococcus aureus FS 289, strain resistant to penicillin) of the same molecule?
Answer: 12.5 µg/mL

Question: What about the “Minimum Inhibitory Concentration” value (Proteus vulgaris HX 19) of the same molecule?
Answer: 1.56 µg/mL

Question: What about the “Minimum Inhibitory Concentration” value (Serratia No. 72) of the same molecule?
Answer: 100 µg/mL

Question: What about the “Minimum Inhibitory Concentration” value [5] of the same molecule?
Answer: 12.5 µg/mL

Question: How did the MIC (Escherichia coli NIHJ; Escherichia coli NIHJ) turn out when `Cc1nnc(SCC2=C(C(=O)O)N3C(=O)C(NC(=O)C(NC(=O)c4cncnc4O)c4ccc(N)cc4)C3SC2)s1` (stereo not drawn) [Example 61] was run?
Answer: 25 µg/mL (≈ 40.7 µM)

Question: And the MIC [1]?
Answer: 25 µg/mL (≈ 40.7 µM)

Question: What about the MIC [2, 6] of the same molecule?
Answer: 12.5 µg/mL (≈ 20.3 µM)

Question: What about the MIC [3] of the same molecule?
Answer: 0.39 µg/mL (≈ 0.634 µM)

Question: And the MIC [4, 7]?
Answer: 6.25 µg/mL (≈ 10.2 µM)

Question: And the MIC (Proteus vulgaris HX 19)?
Answer: 0.2 µg/mL (≈ 0.325 µM)

Question: What about the MIC (Serratia No. 72) of the same molecule?
Answer: > 200 µg/mL

Question: What about the MIC [5] of the same molecule?
Answer: 6.25 µg/mL (≈ 10.2 µM)

Question: What does the source list for `Cc1nnc(SCC2=C(C(=O)O)N3C(=O)C(NC(=O)C(NC(=O)c4cnc5ccc(N(C)C)nc5c4O)c4ccc(CO)cc4)C3SC2)s1` (stereo not drawn) [Example 107]?
Answer: MIC (Escherichia coli NIHJ; Escherichia coli NIHJ): 3.13 µg/mL (≈ 4.33 µM); MIC [1]: 6.25 µg/mL (≈ 8.65 µM); MIC [2, 6]: 1.56 µg/mL (≈ 2.16 µM); MIC [3]: 1.56 µg/mL (≈ 2.16 µM); MIC [4, 7]: 6.25 µg/mL (≈ 8.65 µM); MIC (Proteus vulgaris HX 19): 0.1 µg/mL (≈ 0.138 µM); MIC (Serratia No. 72): 12.5 µg/mL (≈ 17.3 µM); MIC [5]: 6.25 µg/mL (≈ 8.65 µM)
